Patent US10781456B2, “Carbon-neutral and carbon-positive photorespiration bypass routes supporting higher photosynthetic rate and yield” (Max-Planck-Gesellschaft zur Förderung der Wissenschaften …, priority 2015, dated 2020)
Where two headings read alike, the source gives them in different places.

Columns and labels:
[1] = target: D-fructose 6-phosphate aldolase encoded by E. coli gene fsaA (UniProt P78055); conditions: cited from earlier work
[2] = target: D-fructose 6-phosphate aldolase encoded by E. coli gene fsaB (UniProt P32669); conditions: cited from earlier work
[3] = target: transaldolase TalB from E. coli (UniProt P0A870); conditions: cited from earlier work
[4] = target: transaldolase Tal from B. subtilis (UniProt P19669); conditions: cited from earlier work
[5] = target: transaldolase Tal from C. glutamicum (UniProt Q8NQ64); conditions: cited from earlier work
[6] = substrate: O=C(COP(=O)(O)O)[C@H](O)[C@H](O)CO; assay: isomerisation of D-ribulose 1-phosphate to D-ribose 1-phosphate (reaction 29#), preliminary study; assay type: biochemical; conditions: other: preliminary study
glycolyl-CoA [7] = assay: propionyl-CoA carboxylase ATP hydrolysis assay coupled to PK/LDH, NADH oxidation at 340 nm, product tartronyl-CoA confirmed by UPLC-hrMS (reaction 3#); assay type: biochemical
Procedure: The activity of the PCCMe_D407I_Y143H protein as well as the PCCMe protein was determined spectrophotometrically at 37° C. The ATP hydrolysis reaction of the respective enzyme was coupled to ATP regeneration by pyruvate kinase (PK) with phosphoenolpyruvate (PEP) and subsequent reduction to lactate by lactate dehydrogenase (LDH). The oxidation of NADH by LDH was followed spectrophotometrically at 340 nm. The reaction mixture (300 μL) contained 200 mM NH4HCO3 buffer, pH 7.7, 5 mM MgCl2, 1 mM ATP, 1 mM PEP, 4 U PK, 5.8 U LDH, 0.3 mM NADH and 48 μg of PCCMe_D407I_Y143H or PCCMe. The reaction was initiated by addition of 1 mM glycolyl-CoA. Samples for UPLC-hrMS were withdrawn and stopped by acidification (5% formic acid) after most of the NADH was consumed. Precipitated protein was removed by centrifugation at 4° C. and 17 000×g. The supernatants were analyzed by UPLC-hrMS as described above. […] As mentioned above, and shown in FIG. 10, the glycolyl-CoA carboxylation activity of the PCCMe_D407I_Y143H enzyme was confirmed by direct detection of the product tartronyl-CoA by UPLC-hrMS.
In a second assay, the reaction mixture was slightly modified for a ^13C labeling experiment. Here, the reaction mixture contained 50 mM NH4HCO3 buffer, pH 7.7 and 150 mM [^13C]NaHCO3, pH 7.7 (otherwise as above-mentioned). […]

glycolyl-CoA [8] = assay: MCRCa coupled assay: glycolyl-CoA carboxylation by PCC coupled to two step reduction to glycerate by MCRCa (reactions 3#, 4#, 5), HPLC-hrMS and NADPH absorption; assay type: biochemical
Procedure: In addition to the above mentioned assays also another assay was performed in which the formation of tartronyl-CoA from glycolyl-CoA (reaction 3#) by the PCCMe_D407I_Y143H enzyme was directly coupled to its subsequent two step reduction via tartronate-semialdehyde (reaction 4#) to glycerate (reaction 5) by use of the purified MCRCa (Kröger et al., 2011, loc. cit.). The reaction mixture (300 μL) contained 200 mM NH4HCO3 buffer, pH 7.7, 5 mM MgCl2, 1 mM ATP, 0.4 mM NADPH, 43 μg PCCMe_D407I_Y143H, and 184 μg of MCRCa.
To determine whether MCRCa was able to catalyze the two step reduction of tartonyl-CoA to glycerate (via tartronic semialdehyde), samples of the reaction mixture were withdrawn after all of the NADPH was consumed. The samples were stopped with formic acid (5% final concentration). The acidified samples were centrifuged at 4° C. and 17 000×g and the supernatants were analyzed by HPLC-hrMS.
The formation of glycerate was analyzed using an Agilent 6550 iFunnel Q-TOF LC-MS system equipped with an electrospray ionization source set to negative ionization mode. […]
LC-MS data were analyzed using MassHunter Qualitative Analysis software (Agilent). […] In such assays the tartronate semialdehyde can be covalently derivatized with phenylhydrazine to a phenylhydrazone, which can be detected by its absorbance at 324 nm and confirmed by its corresponding mass spectrum. […]

[9] = as an acceptor, read-out: KM for glycolaldehyde as an acceptor
[10] = bound stated for both fsaA and fsaB enzymes, read-out: KM (condensation of glycolaldehyde as donor with D-glyceraldehyde 3-phosphate as acceptor)
[11] = D-fructose 6-phosphate and glycolaldehyde, range over the three transaldolases
[12] = transaldolase reaction with D-fructose 6-phosphate, read-out: KM towards glycolaldehyde

Molecule: O=CCO [glycolaldehyde]
- Km [1, 9]: > 60 mM
- Km [1, 10]: < 1 mM
- Km ([1]; read-out: KM for glycolaldehyde): ~0.2 mM
- Km [2, 9]: > 60 mM
- Km [2, 10]: < 1 mM
- vmax [3, 11]: 1.6 to 8.8 µmol/min/mg
- Km [3, 12]: > 60 mM
- vmax [4, 11]: 1.6 to 8.8 µmol/min/mg
- Km [4, 12]: > 60 mM
- vmax [5, 11]: 1.6 to 8.8 µmol/min/mg
- Km [5, 12]: > 60 mM

B1: 5-methylthio-D-ribulose 1-phosphate 1,2-isomerase Rru_A0360 (Rhodospirillum rubrum ATCC 11170) (protein)
chain: MNVKGTPTRTIWPAREGGAVWIIDQTRLPHEFVTQRLNDLGAVAHAIRAMLVRGAPLIGATAAYGVALGMAEDPSDEGLTRACQTLLATRPTAVNLRWAIEAMAESLAAVPPDQRAQAAWAKAGAICDEDVALNEAIGDHGLGIIKDLARTKGVEKGGEGPINILTHCNAGWLATVDWGTALAPLYKAHDAGLPIHVWVDETRPRNQGASLTAWELNSHGVPHTVIADNTGGHLMQHGLVDMVIVGTDRTTATGDVCNKIGTYLKALAAFDNAVPFYVALPGPTIDWTVNDGLREIPIEQRDAAEVTRVWGRTAAGALEWVTITPTGSPAANYAFDVTPARLITGLITERGVCAASAAGLAGLYPERAPAPVPAGSAAGKGAAATADGAL
notes: preliminary kinetics, preparation not described
- kcat [6]: 0.03 s⁻¹

B2: PCCMe: propionyl-CoA carboxylase of Methylobacterium extorquens, subunits pccA (SEQ ID NO: 2) and pccB (SEQ ID NO: 4) (protein, listed as Methylobacterium extorquens)
alpha: MFDKILIANRGEIACRIIKTAQKMGIKTVAVYSDADRDAVHVAMADEAVHIGPAPAAQSYLLIEKIIDACKQTGAQAVHPGYGFLSERESFPKALAEAGIVFIGPNPGAIAAMGDKIESKKAAAAAEVSTVPGFLGVIESPEHAVTIADEIGYPVMIKASAGGGGKGMRIAESADEVAEGFARAKSEASSSFGDDRVFVEKFITDPRHIEIQVIGDKHGNVIYLGERECSIQRRNQKVIEEAPSPLLDEETRRKMGEQAVALAKAVNYDSAGTVEFVAGQDKSFYFLEMNTRLQVEHPVTEMITGLDLVELMIRVAAGEKLPLSQDQVKLDGWAVESRVYAEDPTRNFLPSIGRLTTYQPPEEGPLGGAIVRNDTGVEEGGEIAIHYDPMIAKLVTWAPTRLEAIEAQATALDAFAIEGIRHNIPFLATLMAHPRWRDGRLSTGFIKEEFPEGFIAPEPEGPVAHRLAAVAAAIDHKLNIRKRGISGQMRDPSLLTFQRERVVVLSGQRFNVTVDPDGDDLLVTFDDGTTAPVRSAWRPGAPVWSGTVGDQSVAIQVRPLLNGVFLQHAGAAAEARVFTRREAELADLMPVKENAGSGKQLLCPMPGLVKQIMVSEGQEVKNGEPLAIVEAMKMENVLRAERDGTISKIAAKEGDSLAVDAVILEFA
beta: MKDILEKLEERRAQARLGGGEKRLEAQHKRGKLTARERIELLLDHGSFEEFDMFVQHRSTDFGMEKQKIPGDGVVTGWGTVNGRTVFLFSKDFTVFGGSLSEAHAAKIVKVQDMALKMRAPIIGIFDAGGARIQEGVAALGGYGEVFRRNVAASGVIPQISVIMGPCAGGDVYSPAMTDFIFMVRDTSYMFVTGPDVVKTVTNEVVTAEELGGAKVHTSKSSIADGSFENDVEAILQIRRLLDFLPANNIEGVPEIESFDDVNRLDKSLDTLIPDNPNKPYDMGELIRRVVDEGDFFEIQAAYARNIITGFGRVEGRTVGFVANQPLVLAGVLDSDASRKAARFVRFCNAFSIPIVTFVDVPGFLPGTAQEYGGLIKHGAKLLFAYSQATVPLVTIITRKAFGGAYDVMASKHVGADLNYAWPTAQIAVMGAKGAVEIIFRAEIGDADKIAERTKEYEDRFLSPFVAAERGYIDEVIMPHSTRKRIARALGMLRTKEMEQPWKKHDNIPL
modifications: [CDS]1..2004 from SEQ ID NO 1; [CDS]1..1533 from SEQ ID NO 3
- glycolyl-CoA carboxylation activity (tartronyl-CoA by UPLC-hrMS) (glycolyl-CoA [7]): exhibited a glycolyl-CoA carboxylation activity, although the activity was lower
- glycolyl-CoA-dependent ATP hydrolysis rate (glycolyl-CoA [7]; 1 mM glycolyl-CoA, 37° C.): 0.4 U mg^−1
- activity with glycolyl-CoA in the MCRCa coupled assay (glycolyl-CoA [8]): no activity could be measured
